From patent US6030841A, “Liver function test” (Norgine Limited, priority 1997, dated 2000)
Read-outs that look alike come from different tables or passages of the source.

Columns and labels:
[1] = Plasma elimination of CLF after intravenous injection in healthy volunteers (and patients); type: in vivo, human
Description: A study was carried out in six healthy volunteers (1 female, 5 male), ages 30-53 years. Subjects were studied supine after overnight fasting. After an initial basal blood sample was taken, CLF in a dose of 0.02 mg/kg of body weight (b.w.) in physiological saline was injected intravenously during 15 seconds. Venous blood samples were collected from the opposite antecubital vein into gel and lithium heparin containers (sold under the Trade Name Vacutainers by Becton Dickinson Vacutainer Systems) at 2, 3, 4, 6, 10, 15, 20, 30, 60 and 90 minutes. The blood samples were then centrifuged and 0.5 ml aliquots of plasma were taken and added to 3.5 ml of methanol to precipitate plasma proteins, followed by further centrifugation. The supernatant (1 ml) was diluted to 3 ml with methanol and the fluorescence was then measured by spectrometer (Perkin Elmer LS5B Luminescence Spectrometer).
CLF concentration (μg/ml) was derived from a calibration curve which expressed the equation: […]
where y represents the measured fluorescence in fluorescence units at an excitation wavelength of 490 nm with emission at 520 nm and x represents the CLF concentration in μg/ml. The calibration curve was calibrated from fluorescence meaurements of solutions having known CLF concentrations followed by linear regression analysis.
Non linear plasma elimination curves presented as percentage dose administered per liter of plasma were fitted to a tri-exponential model. The half life (t1/2 time) was calculated for the first (t1/2 1st phase), second (t1/2 2nd phase) and third (t1/2 3rd phase) phases of the elimination curves from the equations: […]
where k1, k2 and k3 were calculated for each subject using the equation:
Ct =Ae^-k.sbsp.1^t +Be^-k.sbsp.2^t
Ct is the concentration of CLF at time t, A, B and C are the intercepts of each phase of elimination at t=0 k1, k2 and k3 are fractional disappearance rates of the three phases of elimination.

[2] = Standard liver function tests, electrolytes and kidney function before and after 0.5 mg/kg b.w. CLF; type: in vivo, human
Description: In five healthy volunteers, a 25-fold higher dose of CLF (0.5 mg/kg b.w.) was injected in order to further assess the appropriateness of the dose chosen and the safety of the compound. […] Table.
Tests of Liver Function Before And After CLF Dose of
0.5 mg/Kg b.w. For 5 Healthy Patients.

[3] = Horak et al., cited from earlier work
[4] = radiolabelled, bi-exponential model, Cowen et al.; cited from earlier work
[5] = CLF 0.02 mg/kg b.w. i.v., healthy volunteers, plasma, tri-exponential model
[6] = after CLF 0.5 mg/kg b.w., only one value given

## CC(CCC(=O)NC(CCCCNC(=S)Nc1ccc(-c2c3ccc(=O)cc-3oc3cc(O)ccc23)c(C(=O)O)c1)C(=O)O)C1CCC2C3C(O)CC4CC(O)CCC4(C)C3CC(O)C12C (stereo not shown) [CLF, cholyl-lysyl-fluorescein]
[1]; 0.5 mg/kg b.w. i.v. versus 0.02 mg/kg, healthy volunteers
  efficiency of hepatic clearance (elimination curves at 25-fold increased dose): efficiency of hepatic clearance is unchanged
[1]; 60 min vs 10 min, plasma, healthy volunteers
  percentage of fluorescence after 60 min (fluorescence at 60 min compared with 10 min): 13.1±1.6%
[1]; 90 minutes, i.v., healthy volunteers
  Plasma retention at 90 minutes, percentage of the dose administered per liter of plasma: 2.2%
[1]; [5]
  t1/2 1st phase of elimination: 1.7 ± 0.9 min
  t1/2 2nd phase of elimination: 6.7 ± 1.6 min
  t1/2 3rd phase of elimination: 68 ± 17 min
[1]; body of data, comparison with natural bile acids
  CLF plasma elimination compared with natural bile acids: very similar to the elimination of natural bile acids
[1]; calculated as proposed by Thiordleifsson et al., 0.02 mg/kg
  volume of distribution: 2214 ± 147 mL
[1]; healthy patients versus patients with fatty, cirrhotic and recently transplanted livers (5 days post operation)
  CLF elimination curves of FIG. 2: differing rates of CLF elimination
[2]; 0.5 mg/kg b.w. i.v., five healthy volunteers
  Serum biochemistry including basic liver function tests, electrolytes and kidney function: did not change significantly
[2]; 0.5 mg/kg b.w. i.v., healthy volunteers, not statistically significant
  plasma alkaline phosphatase levels post injection: consistent diminution
[2]; after CLF 0.5 mg/kg b.w., before: 10
  bilirubin after CLF injection: 11 μM/L
[2]; after CLF 0.5 mg/kg b.w., before: 17
  AST (aspartate aminotransferase) after CLF injection: 16 U/L
[2]; after CLF 0.5 mg/kg b.w., before: 94
  Creatinine after CLF injection: 89 μM/L
[2]; after CLF 0.5 mg/kg b.w., before: 148
  AlkP (alkaline phosphatase) after CLF injection: 134 U/L
[2]; [6]
  Albumin after CLF injection: 42 g/L
  Urea after CLF injection: 4.3 mM/L

## C[C@H](CCC(=O)O)[C@H]1CC[C@H]2[C@@H]3[C@H](O)C[C@@H]4C[C@H](O)CC[C@]4(C)[C@H]3C[C@H](O)[C@]12C [cholic acid]
[3]; FHF patients who survived
  60 min plasma retention: 60%
[3]; healthy volunteers, 60 min compared with 10 min
  60 min plasma retention: 8±1%
[3]; patients with fulminant hepatic failure (FHF) who subsequently died
  60 min plasma retention: 71%

## C[C@H](CCC(=O)NCC(=O)O)[C@H]1CC[C@H]2[C@@H]3[C@H](O)C[C@@H]4C[C@H](O)CC[C@]4(C)[C@H]3C[C@H](O)[C@]12C [cholyl glycine]
[4]
  t1/2 first exponential: 1.7 ± 0.1 min
  t1/2 second exponential: 7 ± 0.1 min
